Laboratory results reported in PubChem BioAssay AID1963958 (Molecular Pharmacology Branch, DTP, NCI, 2024).

System: MDA-MB-231 multicell spheroids, viability
Assay: Anticancer human tumor MDA-MB-231 cell line growth inhibition [PI3K];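 also: spheroids exposed to agents for seven days before reading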;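 as to viability, T/C: percent of vehicle control luminescence with DMSO treated spheroids as 100%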
Settings: for IC50: curve of first compound; for viability, T/C: stronger effect = lower value; active = viability on the fitted dose curve at most 10% of control; inactive = the rest
How it was run: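 Complex 3D spheroids (cancer cells + endothelial HUVEC + mesenchymal stem cells); drug pairs of targeted agent x inavolisib/alpelisib/duvelisib/copanlisib; half-log series from ~Cmax, max 10 microM if Cmax unknown; endpoint viability.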

[1] = second compound 0.0316 µM, first compound 0.0316 µM
[2] = second compound 0.0316 µM, first compound 0.1 µM
[3] = second compound 0.0316 µM, first compound 0.316 µM
[4] = second compound 0.0316 µM, first compound 1 µM
[5] = second compound 0.0316 µM, first compound 3.16 µM
[6] = second compound 0.0316 µM, first compound 10 µM
[7] = second compound 0.1 µM, first compound 0.0316 µM
[8] = second compound 0.1 µM, first compound 0.1 µM
[9] = second compound 0.1 µM, first compound 0.316 µM
[10] = second compound 0.1 µM, first compound 1 µM
[11] = second compound 0.1 µM, first compound 3.16 µM
[12] = second compound 0.1 µM, first compound 10 µM
[13] = second compound 0.316 µM, first compound 0.0316 µM
[14] = second compound 0.316 µM, first compound 0.1 µM
[15] = second compound 0.316 µM, first compound 0.316 µM
[16] = second compound 0.316 µM, first compound 1 µM
[17] = second compound 0.316 µM, first compound 3.16 µM
[18] = second compound 0.316 µM, first compound 10 µM
[19] = second compound 1 µM, first compound 0.0316 µM
[20] = second compound 1 µM, first compound 0.1 µM
[21] = second compound 1 µM, first compound 0.316 µM
[22] = second compound 1 µM, first compound 1 µM
[23] = second compound 1 µM, first compound 3.16 µM
[24] = second compound 1 µM, first compound 10 µM
[25] = second compound 3.16 µM, first compound 0.0316 µM
[26] = second compound 3.16 µM, first compound 0.1 µM
[27] = second compound 3.16 µM, first compound 0.316 µM
[28] = second compound 3.16 µM, first compound 1 µM
[29] = second compound 3.16 µM, first compound 3.16 µM
[30] = second compound 3.16 µM, first compound 10 µM
[31] = second compound 10 µM, first compound 0.0316 µM
[32] = second compound 10 µM, first compound 0.1 µM
[33] = second compound 10 µM, first compound 0.316 µM
[34] = second compound 10 µM, first compound 1 µM
[35] = second compound 10 µM, first compound 3.16 µM
[36] = second compound 10 µM, first compound 10 µM

Cn1ncc(Cl)c1-c1cc(C(=O)NC(CN)Cc2cccc(F)c2)sc1Cl (stereo unspecified) + CC(Nc1ncnc2nc[nH]c12)c1cc2cccc(Cl)c2c(=O)n1-c1ccccc1
3880 nM: IC50 (second compound 0.0316 µM)
inactive: viability, T/C [1] 100% | viability, T/C [2] 96.4% | viability, T/C [3] 84.6% | viability, T/C [4] 74.9% | viability, T/C [5] 55% | viability, T/C [6] 27.8% | viability, T/C [7] 103% | viability, T/C [8] 97.7% | viability, T/C [9] 95.4% | viability, T/C [10] 75.4% | viability, T/C [11] 53.3% | viability, T/C [12] 29.2% | viability, T/C [13] 93.1% | viability, T/C [14] 97.6% | viability, T/C [15] 84.9% | viability, T/C [16] 65.2% | viability, T/C [17] 48.9% | viability, T/C [18] 27.5% | viability, T/C [19] 77.5% | viability, T/C [20] 80.5% | viability, T/C [21] 69.5% | viability, T/C [22] 64% | viability, T/C [23] 43.6% | viability, T/C [24] 23.4% | viability, T/C [25] 63.6% | viability, T/C [26] 62.2% | viability, T/C [27] 57% | viability, T/C [28] 51.9% | viability, T/C [29] 36.3% | viability, T/C [30] 22% | viability, T/C [31] 45.3% | viability, T/C [32] 45% | viability, T/C [33] 47.5% | viability, T/C [34] 43.2% | viability, T/C [35] 29.1% | viability, T/C [36] 20.9%
1050 nM: IC50 (second compound 3.16 µM)
< 31.6 nM: IC50 (second compound 10 µM)
3590 nM: IC50 (second compound 0.1 µM)
2190 nM: IC50 (second compound 1 µM)
2610 nM: IC50 (second compound 0.316 µM)

Cn1nccc1Nc1nccc(-c2ccn(C(CO)c3ccc(Cl)c(F)c3)c(=O)c2)n1 (stereo unspecified) + CC(Nc1ncnc2nc[nH]c12)c1cc2cccc(Cl)c2c(=O)n1-c1ccccc1
< 31.6 nM: IC50 (second compound 3.16 µM) | IC50 (second compound 10 µM)
300 nM: IC50 (second compound 0.316 µM)
512 nM: IC50 (second compound 0.1 µM)
706 nM: IC50 (second compound 0.0316 µM)
inactive: viability, T/C [1] 80.1% | viability, T/C [2] 68.8% | viability, T/C [3] 56.8% | viability, T/C [4] 46.4% | viability, T/C [5] 38.6% | viability, T/C [6] 27.9% | viability, T/C [7] 75.3% | viability, T/C [8] 70.2% | viability, T/C [9] 50.6% | viability, T/C [10] 44.3% | viability, T/C [11] 36.4% | viability, T/C [12] 27.1% | viability, T/C [13] 79.3% | viability, T/C [14] 62.3% | viability, T/C [15] 48% | viability, T/C [16] 40.1% | viability, T/C [17] 35.5% | viability, T/C [18] 26.8% | viability, T/C [19] 64.8% | viability, T/C [20] 50.1% | viability, T/C [21] 39.4% | viability, T/C [22] 36.4% | viability, T/C [23] 33% | viability, T/C [24] 22.1% | viability, T/C [25] 45.9% | viability, T/C [26] 38.8% | viability, T/C [27] 28.5% | viability, T/C [28] 24.8% | viability, T/C [29] 25.2% | viability, T/C [30] 21.2% | viability, T/C [31] 36.5% | viability, T/C [32] 27.3% | viability, T/C [33] 25.7% | viability, T/C [34] 20.8% | viability, T/C [35] 22.9% | viability, T/C [36] 16.8%
117 nM: IC50 (second compound 1 µM)

Cn1ncnc1[C@H]1c2n[nH]c(=O)c3cc(F)cc(c23)N[C@@H]1c1ccc(F)cc1 + CC(Nc1ncnc2nc[nH]c12)c1cc2cccc(Cl)c2c(=O)n1-c1ccccc1
< 0.316 nM: IC50 (second compound 10 µM)
inactive: viability, T/C (second compound 0.0316 µM, first compound 0.000316 µM) 106% | viability, T/C (second compound 0.0316 µM, first compound 0.001 µM) 108% | viability, T/C (second compound 0.0316 µM, first compound 0.00316 µM) 97.6% | viability, T/C (second compound 0.0316 µM, first compound 0.01 µM) 92.5% | viability, T/C [1] 98.9% | viability, T/C [2] 77.1% | viability, T/C (second compound 0.1 µM, first compound 0.000316 µM) 99.7% | viability, T/C (second compound 0.1 µM, first compound 0.001 µM) 99.7% | viability, T/C (second compound 0.1 µM, first compound 0.00316 µM) 103% | viability, T/C (second compound 0.1 µM, first compound 0.01 µM) 94% | viability, T/C [7] 92% | viability, T/C [8] 79.2% | viability, T/C (second compound 0.316 µM, first compound 0.000316 µM) 94.7% | viability, T/C (second compound 0.316 µM, first compound 0.001 µM) 103% | viability, T/C (second compound 0.316 µM, first compound 0.00316 µM) 86.8% | viability, T/C (second compound 0.316 µM, first compound 0.01 µM) 93.3% | viability, T/C [13] 86.9% | viability, T/C [14] 76.1% | viability, T/C (second compound 1 µM, first compound 0.000316 µM) 87.2% | viability, T/C (second compound 1 µM, first compound 0.001 µM) 81.9% | viability, T/C (second compound 1 µM, first compound 0.00316 µM) 80.8% | viability, T/C (second compound 1 µM, first compound 0.01 µM) 78% | viability, T/C [19] 73.4% | viability, T/C [20] 65% | viability, T/C (second compound 3.16 µM, first compound 0.000316 µM) 63.7% | viability, T/C (second compound 3.16 µM, first compound 0.001 µM) 60.9% | viability, T/C (second compound 3.16 µM, first compound 0.00316 µM) 54.1% | viability, T/C (second compound 3.16 µM, first compound 0.01 µM) 60.6% | viability, T/C [25] 49.8% | viability, T/C [26] 52.3% | viability, T/C (second compound 10 µM, first compound 0.000316 µM) 48.9% | viability, T/C (second compound 10 µM, first compound 0.001 µM) 47.6% | viability, T/C (second compound 10 µM, first compound 0.00316 µM) 46.8% | viability, T/C (second compound 10 µM, first compound 0.01 µM) 46.4% | viability, T/C [31] 46% | viability, T/C [32] 38.8%
> 100 nM: IC50 (second compound 0.0316 µM) | IC50 (second compound 0.1 µM) | IC50 (second compound 0.316 µM) | IC50 (second compound 1 µM) | IC50 (second compound 3.16 µM)
